Test results reported in the supplement of paper PMC10307832.

Columns and labels:
Assay in all cases: relative viability (nuclei count vs DMSO), 5 days (fraction); higher = more cells survive
[1] = compound: CC1=NC=CC(=C1)C2=CC=C(C=C2)CC(=O)NC3=CC=C(C=C3)C4=CN=CC=C4 [Wnt-C59] + CC(C)C[C@H](NC(=O)[C@H](Cc1ccccc1)NC(=O)c1cnccn1)B(O)O [Bortezomib] (partner 0.002 µM)
Procedure, shortened: (§1)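 Relative viability equals treated-well nuclei counts divided by vehicle-well nuclei counts. Counts came from 4× images of lung cancer cell lines grown in 1536-well plates for 5 days after pin-tool dosing on the day after seeding. Dosing used one drug alone or a fixed anchor-drug dose plus five library-drug doses (not always all listed) in √10 steps, and values are medians of duplicate plates.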

[2] = compound: CC1=NC=CC(=C1)C2=CC=C(C=C2)CC(=O)NC3=CC=C(C=C3)C4=CN=CC=C4 [Wnt-C59] + COc1cc2c(Oc3ccc(NC(=O)C4(C(=O)Nc5ccc(F)cc5)CC4)cc3F)ccnc2cc1OCCCN1CCOCC1 [Foretinib] (partner 0.25 µM)
Procedure, shortened: as §1

[3] = compound: CC1=NC=CC(=C1)C2=CC=C(C=C2)CC(=O)NC3=CC=C(C=C3)C4=CN=CC=C4 [Wnt-C59] + Nc1nc2[nH]cc(CCc3ccc(C(=O)N[C@@H](CCC(=O)O)C(=O)O)cc3)c2c(=O)[nH]1 [Pemetrexed] (partner 0.2 µM)
Procedure, shortened: as §1

[4] = compound: CS(=O)(=O)CCNCc1ccc(-c2ccc3ncnc(Nc4ccc(OCc5cccc(F)c5)c(Cl)c4)c3c2)o1 [Lapatinib] + CC(C)C[C@H](NC(=O)[C@H](Cc1ccccc1)NC(=O)c1cnccn1)B(O)O [Bortezomib] (partner 0.002 µM)
Procedure, shortened: as §1

Cell Line | relative viability ([1]; first compound 0.001 µM) | relative viability ([1]; first compound 0.01 µM) | relative viability ([1]; first compound 0.03162 µM) | relative viability ([1]; first compound 0.1 µM) | relative viability ([2]; first compound 0.001 µM) | relative viability ([2]; first compound 0.01 µM) | relative viability ([2]; first compound 0.03162 µM) | relative viability ([2]; first compound 0.1 µM) | relative viability ([3]; first compound 0.001 µM) | relative viability ([3]; first compound 0.01 µM) | relative viability ([3]; first compound 0.03162 µM) | relative viability ([3]; first compound 0.1 µM) | relative viability ([4]; first compound 0.02 µM) | relative viability ([4]; first compound 0.06325 µM) | relative viability ([4]; first compound 0.2 µM) | relative viability ([4]; first compound 0.6325 µM) | relative viability ([4]; first compound 2 µM)
COR-L 105 | 0.579 | 0.772 | 0.685 | 0.662 | 1.13 | 0.722 | 1.03 | 0.911 | 1.13 | 0.887 | 1.14 | 1.15 | 0.503 | 0.512 | 0.637 | 0.524 | 0.378
HCC-827 | 1.05 | 1.14 | 0.97 | 1.05 | 1.08 | 1 | 1.03 | 1.04 | 0.282 | 0.262 | 0.282 | 0.255 | 0.982 | 1.04 | 1.1 | 0.94 | 1.07
PC-14 | 0.949 | 0.9 | 0.903 | 0.733 | 1.03 | 0.982 | 0.897 | 0.973 | 0.131 | 0.138 | 0.109 | 0.143 | 0.799 | 0.936 | 0.835 | 0.898 | 0.661
NCI-H1915 | 0.943 | 0.951 | 1.05 | 0.934 | 1.12 | 1.03 | 1.16 | 1.09 | 0.502 | 0.464 | 0.517 | 0.505 | – | 0.973 | 1.04 | 0.915 | 0.953
LCLC-103H | 1.04 | 1.12 | 1.06 | 1.1 | 0.752 | 0.891 | 0.889 | 0.641 | 0.452 | 0.467 | 0.482 | 0.505 | – | 1.03 | 1.13 | 1.06 | 1.04
NCI-H2228 | 1.07 | 0.746 | 1.07 | 0.855 | 0.758 | 0.778 | 0.751 | 0.594 | 0.306 | 0.334 | 0.337 | 0.328 | 0.841 | 1 | 1.09 | 1.01 | 0.801
EPLC-272H | 1 | 0.934 | 1.03 | 0.877 | 0.722 | 0.667 | 0.831 | 0.697 | 0.38 | 0.354 | 0.318 | 0.315 | – | 0.837 | 0.904 | 1.01 | 0.781
NCI-H2126 | 1.12 | 1.09 | 1.11 | 1.11 | 1.2 | 1.11 | 1.05 | 1.25 | 0.688 | 0.655 | 0.642 | 0.649 | – | 1.05 | 1.04 | 1.03 | 1.03
